Measurements reported in US20230373989A1, “N-PHENYLAMINOCARBONYL PYRIDINO-, PYRIMIDINO AND BENZO-TROPANES AS MODULATORS OF GPR65” (PATHIOS THERAPEUTICS LIMITED, priority 2020, published 2023).

What follows are compounds tested against T1, human recombinant GPR65 (Homo sapiens, UniProt Q8IYL9) (assay: Human GPR65 cAMP HTRF antagonist assay). Details: not given.
T1 construct: host or cells: 1321N1 human astrocytoma cells (1321N1-hrGPR65)
Format: cell-based
Outline: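 1321N1 astrocytoma cells stably expressing GPR65 were preincubated with compound for 30 min at room temperature in KRH pH 7.6 with 1 mM IBMX and 200 μM EDTA. They were then stimulated at assay pH 7.2 for 30 min, with controls at pH 7.9. cAMP was read by HTRF (665/620 nm), normalised to controls and fitted by 4-parameter logistic to give IC50.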

T1 sequence (Q8IYL9 whole entry): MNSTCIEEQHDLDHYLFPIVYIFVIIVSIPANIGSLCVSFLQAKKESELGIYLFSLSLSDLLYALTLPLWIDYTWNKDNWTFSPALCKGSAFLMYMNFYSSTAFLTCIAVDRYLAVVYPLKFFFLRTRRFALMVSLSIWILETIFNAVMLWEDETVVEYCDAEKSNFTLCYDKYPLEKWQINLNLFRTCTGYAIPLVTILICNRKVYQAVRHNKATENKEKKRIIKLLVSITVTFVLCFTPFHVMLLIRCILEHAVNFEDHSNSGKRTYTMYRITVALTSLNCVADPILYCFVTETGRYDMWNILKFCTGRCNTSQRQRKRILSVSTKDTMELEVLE

Compound	IC50 [nM]
O=C(Nc1ccc(OC(F)(F)F)cc1)N1C2CCC1c1ccnc(F)c1C2 (racemic) [Compound 157, (±)-1-Fluoro-N-(4-(trifluoromethoxy)phenyl)-6,7,8,9-tetrahydro-5H-5,8-epiminocyclohepta[c]pyridin-10-carboxamide]	< 500
O=C(Nc1ccc(-c2ccccc2)cc1)N1C2CCC1c1ccnc(F)c1C2 (racemic) [Compound 158, (±)-N-([1,1′-Biphenyl]-4-yl)-1-fluoro-6,7,8,9-tetrahydro-5H-5,8-epiminocyclohepta[c]pyridine-10-carboxamide]	< 500
Cc1ccc(NC(=O)N2C3CCC2c2ccnc(F)c2C3)cc1C(F)(F)F (racemic) [Compound 160, (±)-1-Fluoro-N-(4-methyl-3-(trifluoromethyl)phenyl)-6,7,8,9-tetrahydro-5H-5,8-epiminocyclohepta[c]pyridine-10-carboxamide]	< 500
N#Cc1ccc(NC(=O)N2C3CCC2c2ccnc(F)c2C3)cc1C(F)(F)F (racemic) [Compound 163, (±)-N-(4-Cyano-3-(trifluoromethyl)phenyl)-1-fluoro-6,7,8,9-tetrahydro-5H-5,8-epiminocyclohepta[c]pyridine-10-carboxamide]	< 500
O=C(Nc1cc(Cl)cc(C(F)(F)F)c1)N1C2CCC1c1ccnc(F)c1C2 (racemic) [Compound 164, (±)-N-(3-Chloro-5-(trifluoromethyl)phenyl)-1-fluoro-6,7,8,9-tetrahydro-5H-5,8-epiminocyclohepta[c]pyridine-10-carboxamide]	< 500
O=C(Nc1cc(Cl)c(Cl)c(Cl)c1)N1C2CCC1c1ccnc(F)c1C2 (racemic) [Compound 166, (±)-1-Fluoro-N-(3,4,5-trichlorophenyl)-6,7,8,9-tetrahydro-5H-5,8-epiminocyclohepta[c]pyridine-10-carboxamide]	< 500
Cc1cc(NC(=O)N2C3CCC2c2ccnc(F)c2C3)ccc1C(F)(F)F (racemic) [Compound 167, (±)-1-Fluoro-N-(3-methyl-4-(trifluoromethyl)phenyl)-6,7,8,9-tetrahydro-5H-5,8-epiminocyclohepta[c]pyridine-10-carboxamide]	< 500
O=C(Nc1ccc(Br)cc1)N1C2CCC1c1ccnc(F)c1C2 (racemic) [Compound 168, (±)-N-(4-Bromophenyl)-1-fluoro-6,7,8,9-tetrahydro-5H-5,8-epiminocyclohepta[c]pyridine-10-carboxamide]	< 500
O=C(Nc1cccc(Br)c1)N1C2CCC1c1ccnc(F)c1C2 (racemic) [Compound 170, (±)-N-(3-Bromophenyl)-1-fluoro-6,7,8,9-tetrahydro-5H-5,8-epiminocyclohepta[c]pyridine-10-carboxamide]	< 500
O=C(Nc1cccc(OC(F)(F)F)c1)N1C2CCC1c1ccnc(F)c1C2 (racemic) [Compound 171, (±)-1-Fluoro-N-(3-(trifluoromethoxy)phenyl)-6,7,8,9-tetrahydro-5H-5,8-epiminocyclohepta[c]pyridine-10-carboxamide]	< 500
O=C(Nc1ccc(F)c(Br)c1)N1C2CCC1c1ccnc(F)c1C2 (racemic) [Compound 172, (±)-N-(3-Bromo-4-fluorophenyl)-1-fluoro-6,7,8,9-tetrahydro-5H-5,8-epiminocyclohepta[c]pyridine-10-carboxamide]	< 500
O=C(Nc1cc(Cl)ccc1F)N1C2CCC1c1ccnc(F)c1C2 (racemic) [Compound 174, (±)-N-(5-Chloro-2-fluorophenyl)-1-fluoro-6,7,8,9-tetrahydro-5H-5,8-epiminocyclohepta[c]pyridine-10-carboxamide]	< 500
O=C(Nc1ccc(Cl)cc1F)N1C2CCC1c1ccnc(F)c1C2 (racemic) [Compound 177, (±)-N-(4-Chloro-2-fluorophenyl)-1-fluoro-6,7,8,9-tetrahydro-5H-5,8-epiminocyclohepta[c]pyridine-10-carboxamide]	< 500
O=C(Nc1ccc(F)c(Cl)c1)N1C2CCC1c1ccnc(F)c1C2 (racemic) [Compound 178, (±)-N-(3-Chloro-4-fluorophenyl)-1-fluoro-6,7,8,9-tetrahydro-5H-5,8-epiminocyclohepta[c]pyridine-10-carboxamide]	< 500
O=C(Nc1cc(Cl)c(Cl)cc1F)N1C2CCC1c1ccc(F)nc1C2 (racemic) [Compound 181, (±)-N-(4,5-Dichloro-2-fluorophenyl)-2-fluoro-6,7,8,9-tetrahydro-5H-5,8-epiminocyclohepta[b]pyridine-10-carboxamide]	< 500
O=C(Nc1cc(Cl)c(C(F)(F)F)cc1F)N1C2CCC1c1ccc(F)nc1C2 (racemic) [Compound 182, (±)-N-(5-Chloro-2-fluoro-4-(trifluoromethyl)phenyl)-2-fluoro-6,7,8,9-tetrahydro-5H-5,8-epiminocyclohepta[b]pyridine-10-carboxamide]	< 500
O=C(Nc1cc(Cl)c(C(F)(F)F)cc1F)N1C2CCC1c1ccc(=O)[nH]c1C2 (racemic) [Compound 189, (±)-N-(5-Chloro-2-fluoro-4-(trifluoromethyl)phenyl)-2-oxo-2,5,6,7,8,9-hexahydro-1H-5,8-epiminocyclohepta[b]pyridine-10-carboxamide]	< 500
O=C(Nc1ccc(C(F)(F)F)c(Cl)c1)N1[C@H]2CC[C@@H]1c1cncnc1C2 [Compound 38, (5R,8S)-N-(3-Chloro-4-(trifluoromethyl)phenyl)-6,7,8,9-tetrahydro-5H-5,8-epiminocyclohepta[d]pyrimidine-10-carboxamide]	< 500
O=C(Nc1ccc(Cl)c(C(F)(F)F)c1)N1[C@H]2CC[C@@H]1c1cncnc1C2 [Compound 42, (5R,8S)-N-(4-Chloro-3-(trifluoromethyl)phenyl)-6,7,8,9-tetrahydro-5H-5,8-epiminocyclohepta[d]pyrimidine-10-carboxamide]	< 500
O=C(Nc1ccc(C(F)(F)F)c(Cl)c1)N1[C@H]2CC[C@@H]1c1c[nH]c(=O)nc1C2 [Compound 43, (5R,8S)-N-(3-Chloro-4-(trifluoromethyl)phenyl)-2-oxo-3,5,6,7,8,9-hexahydro-2H-5,8-epiminocyclohepta[d]pyrimidine-10-carboxamide]	< 500

Same assay, conditions: 1321N1-hrGPR65 cells, assay pH 7.2, cAMP HTRF; read-out: hGPR65 IC50 (activity class)

Compound	IC50 [nM]
O=C(Nc1cc(C(F)(F)F)cc(C(F)(F)F)c1)N1C2CCC1c1ccnc(F)c1C2 (racemic) [Compound 159, (±)-N-(3,5-Bis(trifluoromethyl)phenyl)-1-fluoro-6,7,8,9-tetrahydro-5H-5,8-epiminocyclohepta[c]pyridine-10-carboxamide]	500 to 5000
O=C(Nc1cccc(Cl)c1Cl)N1C2CCC1c1ccnc(F)c1C2 (racemic) [Compound 161, (±)-N-(2,3-Dichlorophenyl)-1-fluoro-6,7,8,9-tetrahydro-5H-5,8-epiminocyclohepta[c]pyridine-10-carboxamide]	500 to 5000
O=C(Nc1ccc(F)cc1F)N1C2CCC1c1ccnc(F)c1C2 (racemic) [Compound 162, (±)-N-(2,4-Difluorophenyl)-1-fluoro-6,7,8,9-tetrahydro-5H-5,8-epiminocyclohepta[c]pyridin-10-carboxamide]	500 to 5000
N#Cc1cc(NC(=O)N2C3CCC2c2ccnc(F)c2C3)ccc1F (racemic) [Compound 165, (±)-N-(3-Cyano-4-fluorophenyl)-1-fluoro-6,7,8,9-tetrahydro-5H-5,8-epiminocyclohepta[c]pyridine-10-carboxamide]	500 to 5000
O=C(Nc1ccc(OC(F)F)cc1)N1C2CCC1c1ccnc(F)c1C2 (racemic) [Compound 169, (±)-N-(4-(Difluoromethoxy)phenyl)-1-fluoro-6,7,8,9-tetrahydro-5H-5,8-epiminocyclohepta[c]pyridine-10-carboxamide]	500 to 5000
O=C(Nc1cc(F)cc(F)c1)N1C2CCC1c1ccnc(F)c1C2 (racemic) [Compound 173, (±)-N-(3,5-Difluorophenyl)-1-fluoro-6,7,8,9-tetrahydro-5H-5,8-epiminocyclohepta[c]pyridine-10-carboxamide]	500 to 5000
O=C(Nc1ccc(F)c(F)c1F)N1C2CCC1c1ccnc(F)c1C2 (racemic) [Compound 175, (±)-1-Fluoro-N-(2,3,4-trifluorophenyl)-6,7,8,9-tetrahydro-5H-5,8-epiminocyclohepta[c]pyridin-10-carboxamide]	500 to 5000
N#Cc1ccc(NC(=O)N2C3CCC2c2ccnc(F)c2C3)cc1 (racemic) [Compound 176, (±)-N-(4-Cyanophenyl)-1-fluoro-6,7,8,9-tetrahydro-5H-5,8-epiminocyclohepta[c]pyridine-10-carboxamide]	500 to 5000
O=C(Nc1cc(Cl)c(Cl)cc1F)N1C2CCC1c1cnncc1C2 (racemic) [Compound 193, (±)-N-(4,5-Dichloro-2-fluorophenyl)-6,7,8,9-tetrahydro-5H-5,8-epiminocyclohepta[d]pyridazine-10-carboxamide]	500 to 5000
O=C(Nc1cc(Cl)c(C(F)(F)F)cc1F)N1C2CCC1c1cnncc1C2 (racemic) [Compound 194, (±)-N-(5-Chloro-2-fluoro-4-(trifluoromethyl)phenyl)-6,7,8,9-tetrahydro-5H-5,8-epiminocyclohepta[d]pyridazine-10-carboxamide]	500 to 5000
O=C(Nc1cc(Cl)c(C(F)(F)F)cc1F)N1C2CCC1c1c(Cl)nnc(Cl)c1C2 (racemic) [Compound 195, (±)-1,4-Dichloro-N-(5-chloro-2-fluoro-4-(trifluoromethyl)phenyl)-6,7,8,9-tetrahydro-5H-5,8-epiminocyclohepta[d]pyridazine-10-carboxamide]	500 to 5000
O=C(Nc1ccc(C(F)(F)F)c(Cl)c1)N1[C@@H]2CC[C@H]1c1cncnc1C2 [Compound 39, (5S,8R)-N-(3-Chloro-4-(trifluoromethyl)phenyl)-6,7,8,9-tetrahydro-5H-5,8-epiminocyclohepta[d]pyrimidine-10-carboxamide]	> 5000
